Results: patent US11578056B2, “Solid forms comprising (S)-2-(2,6-dioxopiperidin-3-yl)-4-((2-fluoro-4-((3-morpholinoazetidin-1-yl)methyl)benzyl)amino)isoindoline-1,3-dione and salts thereof, and compositions comprising and methods of using the same” (Celgene Corporation, priority 2019, dated 2023)

Legend:
Assay in all cases: Hematological cell line viability/apoptosis flow cytometry assay
Type in all cases: cell-based
WA-C3-CD5+ cell line = conditions: WA-C3-CD5+ (CLL), 120 h
Procedure: (§1) Cell Proliferation and Viability Assay Using Hematological Cell Lines: The following exemplary anti-proliferative assay uses exemplary hematological cell lines in the following. The in vitro growth inhibitory activity of Compound 1 described herein was evaluated using a 384-well flow cytometry assay.
(§2) The cell lines were plated in 384-well flat bottom plates and assessed with increasing concentrations of compound ranging from 0.00015 to 10 μM or dimethyl sulfoxide (DMSO) control. The final concentration of DMSO was 0.1% (v/v). Following the addition of Compound 1 or DMSO and incubation for 120 hours, cell number and cell death were analyzed by flow cytometry (Attune®, Thermo Fisher) using Annexin V and the live-cell impermeant DNA dye, DRAQ7. Phosphatidylserine translocates from the inner layer to the outer layer of the cell membrane early in apoptosis and Annexin V binds to the exposed phosphatidylserine found on the surface of an apoptotic cell. The vital dye DRAQ7 is excluded by intact live cells and only stains cells that have died as a result of apoptosis or necrosis.
(§3) Flow cytometry data analysis was then performed using the Flow Jo_v10 software to determine the number of viable cells (Annexin V and DRAQ7 double negative staining cells) and percentage of apoptotic cells (Annexin V positive cells) for each condition. The live cell count for every concentration was normalized to the DMSO control (considered as 100%) to calculate the percentage of viable cells remaining after treatment and graphed using GraphPad Prism 7.03. The IC50 (50% inhibitory concentration) and Emax (maximum efficacy achieved) values were then calculated by performing nonlinear regression curve fitting using log(inhibitor) vs. normalized response—variable slope analysis on GraphPad Prism 7.03. Area under the curve (AUC) was calculated by performing area under curve analysis on GraphPad Prism 7.03. Similarly, for apoptosis analysis, the percentage of apoptosis combining both “early” (Annexin V positive and DRAQ7 negative) and “late” apoptosis (Annexin V and DRAQ7 positive) cell gates relative to DMSO was graphed using GraphPad Prism 7.03. The AUC, EC50 (concentration of compound that produces half-maximal apoptosis response) and Ymax (maximal percentage of apoptosis achieved) values from apoptosis curves were calculated by performing area under curve analysis and nonlinear regression curve fitting using log(agonist) vs. normalized response—Variable slope analysis on GraphPad Prism 7.03.
(§4) Dose-response proliferation curves for the panel of hematological cell lines and non-linear curve-fit regression were used to determine IC50, AUC, and Emax for % viable cells (Emax for viability varies between 100 at low doses and 0 at high doses, which corresponds to inhibition of all viable cells), and dose-response apoptosis curves were used to determine the EC50, AUC, and Ymax for % apoptosis (Ymax for apoptosis varies from 0 at low doses and 100 at higher doses which corresponds to death of all cells). Tumor cells were exposed to serial dilutions (0.00015 to 10 μM) of Compound 1 or dimethyl sulfoxide (DMSO) control for 5 days. Viability and apoptosis for all cell lines was determined by Annexin V/7-aminoactinomycin D (7-AAD) flow cytometry.

SU-DHL-10 cell line = conditions: SU-DHL-10 (DLBCL GCB); 120 h
Procedure: as §1, §2, §3, §4

VAL cell line = conditions: VAL (DLBCL), 120 h
Procedure: as §1, §2, §3, §4

WA-OSEL cell line = conditions: WA-OSEL (CLL), 120 h
Procedure: as §1, §2, §3, §4

KOPN-8 cell line = conditions: KOPN-8 (ALL), 120 h
Procedure: as §1, §2, §3, §4

OCI-LY18 cell line = conditions: OCI-LY18 (DLBCL); 120 h
Procedure: as §1, §2, §3, §4

OCI-LY3 cell line = conditions: OCI-LY3 (DLBCL ABC), 120 h
Procedure: as §1, §2, §3, §4

Pfeiffer cell line = conditions: Pfeiffer (DLBCL GCB); 120 h
Procedure: as §1, §2, §3, §4

WILL-2 cell line = conditions: WILL-2 (DLBCL), 120 h
Procedure: as §1, §2, §3, §4

Rec-1 cell line = conditions: Rec-1 (MCL); 120 h
Procedure: as §1, §2, §3, §4

U-2946 cell line = conditions: U-2946 (DLBCL), 120 h
Procedure: as §1, §2, §3, §4

DB cell line = conditions: 120 h
Procedure: as §1, §2, §3, §4

HT cell line = conditions: HT (DLBCL GCB); 120 h
Procedure: as §1, §2, §3, §4

[1] = Homo sapiens, read-out: % Viable Cells IC50

SMILES: O=C1CC[C@H](N2C(=O)c3cccc(NCc4ccc(CN5CC(N6CCOCC6)C5)cc4F)c3C2=O)C(=O)N1 [Compound 1, (S)-2-(2,6-dioxopiperidin-3-yl)-4-((2-fluoro-4-((3-morpholinoazetidin-1-yl)methyl)benzyl)amino)isoindoline-1,3-dione]
- % Viable Cells AUC (WA-C3-CD5+ cell line): 474.8
- % Viable Cells Emax (WA-C3-CD5+ cell line): 44.2%
- Apoptosis AUC (WA-C3-CD5+ cell line): 162.9
- Apoptosis Ymax (WA-C3-CD5+ cell line): 17.47%
- EC50 (WA-C3-CD5+ cell line): 52.4 nM
- IC50 (WA-C3-CD5+ cell line; read-out: % Viable Cells IC50): 530 nM
- % Viable Cells AUC (SU-DHL-10 cell line): 10.36
- % Viable Cells Emax (SU-DHL-10 cell line): 0.6716%
- Apoptosis AUC (SU-DHL-10 cell line): 903
- Apoptosis Ymax (SU-DHL-10 cell line): 92.27%
- % Viable Cells AUC (VAL cell line): 14.62
- % Viable Cells Emax (VAL cell line): 0.9632%
- Apoptosis AUC (VAL cell line): 936.7
- Apoptosis Ymax (VAL cell line): 95.68%
- EC50 (VAL cell line): 0.605 nM
- IC50 (VAL cell line; read-out: % Viable Cells IC50): 0.57 nM
- % Viable Cells AUC (WA-OSEL cell line): 616.1
- % Viable Cells Emax (WA-OSEL cell line): 54.42%
- Apoptosis AUC (WA-OSEL cell line): 69.39
- Apoptosis Ymax (WA-OSEL cell line): 7.38%
- EC50 (WA-OSEL cell line): 112 nM
- IC50 (WA-OSEL cell line; read-out: % Viable Cells IC50): > 10000 nM
- EC50 (KOPN-8 cell line; Homo sapiens): 726000 nM
- IC50 (KOPN-8 cell line; [1]): 41.8 nM
- % Viable Cells AUC (KOPN-8 cell line): 490.2
- % Viable Cells Emax (KOPN-8 cell line): 38.3%
- Apoptosis AUC (KOPN-8 cell line): 14.95
- Apoptosis Ymax (KOPN-8 cell line): 5.00%
- % Viable Cells AUC (OCI-LY18 cell line): 1.965
- % Viable Cells Emax (OCI-LY18 cell line): 0.05973%
- Apoptosis AUC (OCI-LY18 cell line): 965.2
- Apoptosis Ymax (OCI-LY18 cell line): 97.44%
- IC50 (OCI-LY3 cell line; [1]): > 10000 nM
- % Viable Cells AUC (OCI-LY3 cell line): 965.1
- % Viable Cells Emax (OCI-LY3 cell line): 85.63%
- Apoptosis AUC (OCI-LY3 cell line): 24.63
- Apoptosis Ymax (OCI-LY3 cell line): 4.493%
- % Viable Cells AUC (Pfeiffer cell line): 313.5
- % Viable Cells Emax (Pfeiffer cell line): 24.49%
- Apoptosis AUC (Pfeiffer cell line): 493.3
- Apoptosis Ymax (Pfeiffer cell line): 51.82%
- % Viable Cells AUC (WILL-2 cell line): 17.1
- % Viable Cells Emax (WILL-2 cell line): 0.03115%
- Apoptosis AUC (WILL-2 cell line): 916.9
- Apoptosis Ymax (WILL-2 cell line): 99.43%
- EC50 (WILL-2 cell line): 89.7 nM
- IC50 (WILL-2 cell line; read-out: % Viable Cells IC50): 2.36 nM
- % Viable Cells AUC (Rec-1 cell line): 281.8
- % Viable Cells Emax (Rec-1 cell line): 21.04%
- Apoptosis AUC (Rec-1 cell line): 508.5
- Apoptosis Ymax (Rec-1 cell line): 57.27%
- % Viable Cells AUC (U-2946 cell line): 45.47
- % Viable Cells Emax (U-2946 cell line): 0.4821%
- Apoptosis AUC (U-2946 cell line): 762.6
- Apoptosis Ymax (U-2946 cell line): 93.34%
- EC50 (U-2946 cell line): 192 nM
- IC50 (U-2946 cell line; read-out: % Viable Cells IC50): 4.6 nM
- % Viable Cells AUC (DB cell line): 941.4
- % Viable Cells Emax (DB cell line): 89.46%
- Apoptosis AUC (DB cell line): 80.31
- Apoptosis Ymax (DB cell line): 11.62%
- IC50 (DB cell line; [1]): > 10000 nM
- % Viable Cells AUC (HT cell line): 396.7
- % Viable Cells Emax (HT cell line): 30.39%
- Apoptosis AUC (HT cell line): 225.3
- Apoptosis Ymax (HT cell line): 25.16%
